What was measured:
[1] = system: DLD1 cells; assay: ARP analysis of FUDR treated DLD1 DNA; assay type: cell-based; conditions: ARP-based DNA Damage Quantification Kit, same DNA samples
Method: DNA aliquots (10 μL) from above were diluted in TE buffer (10 μL). DNA concentrations were measured on a Nanodrop 1000 and adjusted to 100 μg/mL in TE buffer. Samples were prepared for ARP analysis using the ARP DNA Damage Quantification Kit (Dojindo #DK02-12). Samples were prepared and analyzed according to the manufacturer's instructions.

[2] = system: AP sites in calf thymus DNA; assay: MX or ARP and Cy7MX genomic DNA competition assay; assay type: binding
Method: Calf thymus DNA was purchased from Sigma and was reconstituted overnight at 4° C. in either H2O or 500 mM MX (to eliminate basal AP sites) with gentle shaking (1.5 mL water or solution per 5 mg DNA). For samples reconstituted in MX solution, an ethanol precipitation was performed twice before heat and acid treatment (vide infra) then reconstituted in water. The DNA-water solution was aliquoted to 1.5 mL Eppendorf tubes (360 μL) and 10× Citrate buffer (1M NaCl, 100 μM monosodium phosphate, 100 μM monosodium citrate, pH 5.0) was added to a final concentration of 1×. For t=0 min samples, ice-cold 100% EtOH (1.0 mL) was added immediately and the Eppendorf tubes stored at −20° C. Other samples were placed in a 70° C. heating block for 15-90 minutes in 15-minute increments. Samples were removed from heat, precipitated in ice-cold 100% EtOH (1.0 mL), and then chilled at −20° C. for at least 20 minutes. Samples were centrifuged at 12,000×G for 10 min at 4° C. The supernatant was discarded. The process was repeated once beginning with the addition of EtOH (1.0 mL). The DNA pellet was dissolved in 700 μL H2O or TE buffer. Aliquots of 80 μL were put in 1.5 mL Eppendorf tubes. Any samples not used immediately were stored at −80° C.
Solutions of MX and Cy7MX were prepared in H2O varying [MX] from 0-1.9 M and maintaining at 25 μM. […] The ratios of MX:Cy7MX used in this study were: 0, 0.01, 0.1, 0.5, 1, 5, 10, 50, 100, 250, 500, 1000, 2500, 5000, 10000, 25000, 50000, and 75000. […] The following samples were prepared in triplicate: 20 μL of MX/Cy7MX solution was added to 80 μL aliquots of heat/acid treated DNA (t=45 min). Samples were incubated for 1 h at 37° C. in the dark. Ice-cold EtOH (1.0 mL) was added and the DNA was purified by EtOH precipitation three times as described in the heat/acid treatment of genomic DNA section. DNA was dissolved in 150 μL H2O. Aliquots (125 μL) of the samples were added to a black, clear-bottom 96 well plate (Corning) and analyzed with 750 nm excitation and 800 nm emission. Fluorescence was adjusted to DNA concentration.
As before (section 2.3.2) except solutions of ARP and Cy7MX were prepared in H2O varying [ARP] from 0-75 mM and maintaining at 1 μM. The ratios of ARP: Cy7MX used in this study were: 0, 0.1, 1, 10, 100, 500, 1000, 5000, 10000, 25000, 50000, and 75000.

NOCC(=O)NNC(=O)CCCC[C@@H]1SC[C@@H]2NC(=O)N[C@@H]21 [ARP]
background and sensitivity of AP site detection [1]: larger background and lower sensitivity than compound Cy7MX
ED50 of Cy7MX, excess of competitor ([2]; 1 h at 37° C., constant Cy7MX): 2600 × excess
ED50, molar ratio of probe to Cy7MX ([2]; calf thymus DNA heat/acid 45 min, FIG. 13): 2600 fold excess

— patent publication US10718028B2, “Fluorescent probes for abasic site detection” (CASE WESTERN RESERVE UIVERSITY, priority 2015, dated 2020)
